The values that follow come from patent US20250171438A1 (Agios Pharmaceuticals, Inc., priority 2022, published 2025).

The target in this test is T1, human PAH with the R408W mutation (Homo sapiens, UniProt P00439, R408W).
T1 construct: expressed in transfected cells
T1 sequence (P00439 1-452 R408W): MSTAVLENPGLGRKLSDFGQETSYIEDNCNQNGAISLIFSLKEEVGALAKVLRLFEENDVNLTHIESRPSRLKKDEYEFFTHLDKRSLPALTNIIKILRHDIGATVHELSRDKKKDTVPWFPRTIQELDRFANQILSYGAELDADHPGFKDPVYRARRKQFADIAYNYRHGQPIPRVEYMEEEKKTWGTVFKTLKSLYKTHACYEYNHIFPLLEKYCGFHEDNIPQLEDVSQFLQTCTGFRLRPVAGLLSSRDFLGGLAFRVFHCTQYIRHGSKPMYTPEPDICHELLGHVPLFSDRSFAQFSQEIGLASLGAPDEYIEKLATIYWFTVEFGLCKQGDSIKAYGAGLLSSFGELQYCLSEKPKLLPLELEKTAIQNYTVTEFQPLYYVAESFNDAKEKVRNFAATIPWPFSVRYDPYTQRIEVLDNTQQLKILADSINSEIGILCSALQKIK
The test can be described thus: Cell Based Phenylalanine Flux Assay. Also on record: scale not given here. The conditions noted are these: A375 cells expressing human R408W PAH, 13C-Tyrosine by LC-MS, average where tested multiple times.

[1] abbreviates: 24 hrs compound incubation, read-out: AC50.
Setting [2] is: 24 hrs with compound, read-out: AC50.

Read-outs that look alike come from different tables or passages of the source. Some results are limits rather than exact numbers.

`O=C(CC1CC1(F)F)N1CCc2[nH]cnc2[C@H]1c1nc2ccccc2s1` (single isomer, unassigned) [Example 1274]: the AC50 under setting [1] lay within 500 to 1000 nM.

Regarding `O=C(C1CC1(F)F)N1CCc2[nH]cnc2[C@@H]1c1nc2ccccc2s1` (single isomer, unassigned) [Example 1285], the AC50 under setting [1] is above 5000 nM.

As to `O=C(C1CC1(F)F)N1CCc2[nH]cnc2[C@@H]1c1nc2ccccc2s1` (single isomer, unassigned) [Example 1286], under setting [1], the half-maximal activity concentration (AC50) fell in the range of 1000 to 5000 nM.

For the compound `O=C(C1CC1(F)F)N1CCc2[nH]cnc2[C@H]1c1nc2ccccc2s1` (single isomer, unassigned) [Example 1287], the AC50 under setting [1] is above 5000 nM.

Take `O=C(C1CC1(F)F)N1CCc2[nH]cnc2[C@H]1c1nc2ccccc2s1` (single isomer, unassigned) [Example 1288]: the AC50 under setting [1] was in the range of 500 to 1000 nM.

For the compound `CC1(C(=O)N2CCc3[nH]cnc3[C@@H]2c2nc3ccccc3s2)CC1(F)F` (single isomer, unassigned) [Example 1289], the AC50 under setting [1] lay in the range of 1000 to 5000 nM.

For `CC1(C(=O)N2CCc3[nH]cnc3[C@@H]2c2nc3ccccc3s2)CC1(F)F` (single isomer, unassigned) [Example 1290], the AC50 under setting [1] was above 5000 nM.

Take `CC1(C(=O)N2CCc3[nH]cnc3[C@H]2c2nc3ccccc3s2)CC1(F)F` (single isomer, unassigned) [Example 1291]: the AC50 under setting [1] is 500 to 1000 nM.

`CC1(C(=O)N2CCc3[nH]cnc3[C@H]2c2nc3ccccc3s2)CC1(F)F` (single isomer, unassigned) [Example 1292]: under setting [1], the AC50 was in the range of 1000 to 5000 nM.

Take `O=C(c1nnc(-c2ccc(F)cn2)o1)N1CCc2[nH]cnc2[C@H]1c1nc2ccccc2s1` (single isomer, unassigned) [Example 1365]: the AC50 under setting [1] is below 500 nM.

As to `Nc1cnc(N2CCc3[nH]cnc3[C@@H]2c2nc3ccccc3s2)nc1` (single isomer, unassigned) [Example 1467], the AC50 under setting [1] fell in the range of 1000 to 5000 nM.

As to `Nc1cnc(N2CCc3[nH]cnc3[C@H]2c2nc3ccccc3s2)nc1` (single isomer, unassigned) [Example 1468], the AC50 under setting [1] was in the range of 500 to 1000 nM.

In the case of `CC(O)(c1nc(C(F)(F)F)c(C(=O)N2CCc3[nH]cnc3[C@H]2c2nc3ccccc3s2)o1)C1CC1` (single isomer, unassigned) [Example 1561], the AC50 under setting [1] is below 500 nM.

As to `CC(O)(c1nc(C(F)(F)F)c(C(=O)N2CCc3[nH]cnc3[C@H]2c2nc3ccccc3s2)o1)C1CC1` (single isomer, unassigned) [Example 1562], the AC50 under setting [1] is below 500 nM.

In the case of `CC(O)(c1nc(C(F)(F)F)c(C(=O)N2CCc3[nH]cnc3[C@@H]2c2nc3ccccc3s2)o1)C1CC1` (single isomer, unassigned) [Example 1563], the AC50 under setting [1] was below 500 nM.

`CC(O)(c1nc(C(F)(F)F)c(C(=O)N2CCc3[nH]cnc3[C@@H]2c2nc3ccccc3s2)o1)C1CC1` (single isomer, unassigned) [Example 1564]: the AC50 under setting [1] is below 500 nM.

Turning to `CC(O)c1nc(Br)c(C(=O)N2CCc3[nH]cnc3[C@H]2c2nc3c(F)cccc3s2)o1` (single isomer, unassigned) [Example 2057], the AC50 under setting [1] is below 500 nM.

As for `CC(O)c1nc(Br)c(C(=O)N2CCc3[nH]cnc3[C@H]2c2nc3c(F)cccc3s2)o1` (single isomer, unassigned) [Example 2058], the AC50 under setting [1] is below 500 nM.

As for `CC(O)c1nc(Br)c(C(=O)N2CCc3[nH]cnc3[C@@H]2c2nc3c(F)cccc3s2)o1` (single isomer, unassigned) [Example 2059], under setting [1], the AC50 was 1000 to 5000 nM.

As for `CC(O)c1nc(Br)c(C(=O)N2CCc3[nH]cnc3[C@@H]2c2nc3c(F)cccc3s2)o1` (single isomer, unassigned) [Example 2060], the AC50 under setting [1] was in the range of 500 to 1000 nM.

With `CC(F)c1nc(C(F)F)c(C(=O)N2CCc3[nH]cnc3[C@H]2c2nc3c(F)cccc3s2)o1` (single isomer, unassigned) [Example 2073], the AC50 under setting [1] is below 500 nM.

On to `CC(F)c1nc(C(F)F)c(C(=O)N2CCc3[nH]cnc3[C@H]2c2nc3c(F)cccc3s2)o1` (single isomer, unassigned) [Example 2074], for which, under setting [1], the AC50 was below 500 nM.

`CC(F)c1nc(C(F)F)c(C(=O)N2CCc3[nH]cnc3[C@H]2c2nc3c(F)cccc3s2)o1` (single isomer, unassigned) [Example 2075]: the AC50 under setting [1] is below 500 nM.

Regarding `CC(O)c1nc(Cl)c(C(=O)N2CCc3[nH]cnc3[C@H]2c2nc3c(F)cccc3s2)o1` (single isomer, unassigned) [Example 2079], the AC50 under setting [1] was below 500 nM.

In the case of `CC(O)c1nc(Cl)c(C(=O)N2CCc3[nH]cnc3[C@H]2c2nc3c(F)cccc3s2)o1` (single isomer, unassigned) [Example 2080], the AC50 under setting [1] lay in the range of 500 to 1000 nM.

In the case of `CC(O)c1nc(Cl)c(C(=O)N2CCc3[nH]cnc3[C@@H]2c2nc3c(F)cccc3s2)o1` (single isomer, unassigned) [Example 2081], the AC50 under setting [1] is 1000 to 5000 nM.

In the case of `CC(O)c1nc(Cl)c(C(=O)N2CCc3[nH]cnc3[C@@H]2c2nc3c(F)cccc3s2)o1` (single isomer, unassigned) [Example 2082], the AC50 under setting [1] fell in the range of 1000 to 5000 nM.

For the compound `CN(C)CCc1nc(C(F)(F)F)c(C(=O)N2CCCc3[nH]cnc3[C@H]2c2nc3ccccc3s2)o1` (single isomer, unassigned) [Example 2125], the AC50 under setting [1] is 500 to 1000 nM.

In the case of `CN(C)CCc1nc(C(F)(F)F)c(C(=O)N2CCCc3[nH]cnc3[C@@H]2c2nc3ccccc3s2)o1` (single isomer, unassigned) [Example 2126], the AC50 under setting [1] was in the range of 1000 to 5000 nM.

In the case of `O=C(N1CCC(O)C1)N1CCc2[nH]cnc2C1c1nc2ccccc2s1` [4S enantiomer of (3R)-1-[4-(1,3-benzothiazol-2-yl)-1H,4H,5H,], the concentration at half-maximal activity (AC50) under setting [2] was in the range of 1000 to 5000 nM.

In the case of `COCCc1ncc(C(=O)N2CC(C)c3[nH]cnc3C2c2nc3ccccc3s2)o1` [(4R,7R) diastereomer of 2-[5-[2-(2-methoxyethyl)-1,3-oxazole], the AC50 entry (24 hrs with compound) is reported as “E, E”.

Consider `COCCc1ncc(C(=O)N2CC(C)c3[nH]cnc3C2c2nc3ccccc3s2)o1` [(4R,7S) diastereomer of 2-[5-[2-(2-methoxyethyl)-1,3-oxazole], for which, under “24 hrs with compound”, the AC50 result was “E, E”.

On to `O=C(Cc1nc(C(F)(F)F)cs1)N1CCc2[nH]cnc2[C@H]1c1nc2ccccc2[nH]1` [(S)-1-(4-(1H-benzo[d]imidazol-2-yl)-1,4,6,7-tetrahydro-5H-imidazo[4,5-c]pyridin-5-yl)-2-(4-(trifluoromethyl)thiazol-2-yl)ethan-1-one], for which the AC50 under setting [2] is 1000 to 5000 nM.

With `O=C(Cc1ccc(F)cc1)N1CCc2[nH]cnc2[C@H]1c1nc2ccccc2[nH]1` [(S)-1-(4-(1H-benzo[d]imidazol-2-yl)-1,4,6,7-tetrahydro-5H-imidazo[4,5-c]pyridin-5-yl)-2-(4-fluorophenyl)ethan-1-one], the AC50 under setting [2] lay in the range of 1000 to 5000 nM.

In the case of `Cc1nnc(CC(=O)N2CCc3[nH]cnc3[C@H]2c2nc3ccccc3[nH]2)s1` [(S)-1-(4-(1H-benzo[d]imidazol-2-yl)-1,4,6,7-tetrahydro-5H-imidazo[4,5-c]pyridin-5-yl)-2-(5-methyl-1,3,4-thiadiazol-2-yl)ethan-1-one], the half-maximal activity concentration (AC50) under setting [2] is above 5000 nM.

Take `O=C(CCc1nc(Cl)cs1)N1CCc2[nH]cnc2[C@H]1c1nc2ccccc2[nH]1` [(S)-1-(4-(1H-benzo[d]imidazol-2-yl)-1,4,6,7-tetrahydro-5H-imidazo[4,5-c]pyridin-5-yl)-3-(4-chlorothiazol-2-yl)propan-1-one]: under setting [2], the AC50 is 1000 to 5000 nM.

On to `Cc1csc(CCC(=O)N2CCc3[nH]cnc3[C@H]2c2nc3ccccc3[nH]2)n1` [(S)-1-(4-(1H-benzo[d]imidazol-2-yl)-1,4,6,7-tetrahydro-5H-imidazo[4,5-c]pyridin-5-yl)-3-(4-methylthiazol-2-yl)propan-1-one], for which the AC50 under setting [2] was 1000 to 5000 nM.

As to `O=C(CCc1nnc(Br)s1)N1CCc2[nH]cnc2[C@H]1c1nc2ccccc2[nH]1` [(S)-1-(4-(1H-benzo[d]imidazol-2-yl)-1,4,6,7-tetrahydro-5H-imidazo[4,5-c]pyridin-5-yl)-3-(5-bromo-1,3,4-thiadiazol-2-yl)propan-1-one], the AC50 under setting [2] was in the range of 1000 to 5000 nM.

For the compound `CCc1nnc(CCC(=O)N2CCc3[nH]cnc3[C@H]2c2nc3ccccc3[nH]2)s1` [(S)-1-(4-(1H-benzo[d]imidazol-2-yl)-1,4,6,7-tetrahydro-5H-imidazo[4,5-c]pyridin-5-yl)-3-(5-ethyl-1,3,4-thiadiazol-2-yl)propan-1-one], the AC50 under setting [2] was 1000 to 5000 nM.

As for `Cc1cnc(CCC(=O)N2CCc3[nH]cnc3[C@H]2c2nc3ccccc3[nH]2)s1` [(S)-1-(4-(1H-benzo[d]imidazol-2-yl)-1,4,6,7-tetrahydro-5H-imidazo[4,5-c]pyridin-5-yl)-3-(5-methylthiazol-2-yl)propan-1-one], the AC50 under setting [2] was in the range of 1000 to 5000 nM.

In the case of `O=C(CCc1nc2ccccc2s1)N1CCc2[nH]cnc2[C@H]1c1nc2ccccc2[nH]1` [(S)-1-(4-(1H-benzo[d]imidazol-2-yl)-1,4,6,7-tetrahydro-5H-imidazo[4,5-c]pyridin-5-yl)-3-(benzo[d]thiazol-2-yl)propan-1-one], under setting [2], the AC50 was 1000 to 5000 nM.

Turning to `O=C(CCc1cscn1)N1CCc2[nH]cnc2[C@H]1c1nc2ccccc2[nH]1` [(S)-1-(4-(1H-benzo[d]imidazol-2-yl)-1,4,6,7-tetrahydro-5H-imidazo[4,5-c]pyridin-5-yl)-3-(thiazol-4-yl)propan-1-one], the AC50 under setting [2] lay in the range of 1000 to 5000 nM.
